Results as given in patent US7271160B2, “Methods and compositions for degradation and/or inhibition of HER-family tyrosine kinases” (Sloan-Kettering Institute for Cancer Research, priority 1999, dated 2007).
“Also recorded” adds a separate entry of the source.

Columns and labels:
MCF-7 cells = test: MCF-7 cell growth inhibition (cell counting); assay type: cell-based; details: Homo sapiens, MCF7, 96 h; MCF-7 cells treated for four days; 50% growth inhibition vs vehicle; average of three experiments; read-out: IC50 (growth inh.)
Procedure: (§1) The human breast cancer cell lines MCF-7 and SKBR-3 were obtained from ATCC (Rockville, Md.), and maintained in DME/F12 (1:1) supplemented with 10% heat-inactivated fetal bovine serum (Gemini Bioproducts), 2 mM glutamine, and 50 units/ml each of penicillin and streptomycin, in a humidified 5% CO2/air atmosphere at 37° C.
For cell growth experiments, cells were plated in 6-well tissue-culture plates (Corning) at 20,000 cells/well. Two days after plating, cells were treated with different concentrations of drugs or the vehicle DMSO (0.1%). MCF-7 cells were treated for four days; medium with the appropriate drug or vehicle was changed every 2 days; cells were trypsinized, collected and counted on a Coulter counter; IC50 for cell growth is designated as the amount of each drug needed to inhibit MCF-7 growth by 50% compared to the control vehicle.

HER2 [1] = test: Induction of HER2 degradation in MCF-7 cells (immunoblotting); assay type: cell-based, human; details: for IC50: 24-hr treatment, amount of drug needed to degrade 50% of the protein vs control, average of three experiments, read-out: IC50 (HER-2); for specificity/selectivity for HER-2 over Raf-1: compared to GM
Procedure: (§2) After exposure, cells were washed twice with ice-cold phosphate-buffered saline (PBS), collected by scraping and transferred into microcentrifuge tubes. For immunoblotting (HER2, Raf-1, ER), cells were lysed with SDS lysis buffer (50 mM Tris-HCl, pH 7.5, 2% SDS, 10% glycerol, and 1 mM DTT), boiled for 10 min, and sonicated briefly; for immanoprecipitation (IGF-IR), cells were lysed with NP40 lysis buffer (50 mM Tris-HCl, pH 7.5, 1% Nonidet P-40, 150 mM NaCl, 1 mM Na3VO4, 40 mM NaF, 1 mM phenylmethylsulfonyl fluoride (PMSF) and 10 μg/ml each of aprotinin, leupeptin and soybean trypsin inhibitor) for 20 min at 4° C. Cell lysates were cleared by centrifuging at 14,000×g for 15 min at 4° C. in a microcentrifuge; the supernatants were collected as the experimental samples. Protein concentration in each sample was determined using the BCA kit (Pierce) according to the manufacture's instructions. For detecting IGF-IR, samples were immunoprecipitated with anti-IGF-IR antibody. Immunocomplexes were collected on protein A-Sepharose beads (Pharmacia), washed three tires with the lysis buffer. Samples were subjected to SDS-PAGE, electrotransferred to nitrocellulose membranes, detected using the ECL kit (Amersham) according to the manufacturer's protocol, and quantitated using the Gel Doc 1000 (Bio-Rad).
(§3) Numerical results for IC50 for HER-2, Raf-1 and cell growth are summarized in Table 1, with each number representing the average of three different experiments.

Raf-1 [2] = test: Induction of Raf-1 degradation in MCF-7 cells (immunoblotting); assay type: cell-based, human; details: for IC50: 24-hr treatment, amount of drug needed to degrade 50% of the protein vs control, average of three experiments
Procedure: as §2, §3

32D cells = test: 32D cell growth (HER-kinase negative cells, daily cell counts); assay type: cell-based, murine; details: 32D cells lacking HER-kinases; various concentrations, counted daily for three days
Procedure: Murine hematopoietic cell line 32D, which lacks HER-kinases, was kindly provided by Dr Yosef Yarden (The Weizmann Institute of Science, Israel), and maintained in RPMI-1640 supplemented with 10% heat-inactivated FBS, 2 nm interleukin 3 (R&D systems), 2 mM glutamine, and 50 units/ml each of penicillin and streptomycin.

SKBR3 = SKBR3 breast cancer cell sensitivity; assay type: cell-based, human; details: SKBR3, HER2 highly overexpressed
Procedure: as §1

Raf-1 [3] = test: Immunofluorescence of Raf-1 in MCF-7 cells; assay type: cell-based, human; details: vs DMSO control
Procedure: (§4) MCF-7 cells were grown and treated on fibronectin-coated coverslips placed in multiwell plates. Cells were fixed for 20 min at −20° C. in 100% methanol, rehydrated in PBS for 10 min at room temperature and blocked for 30 min at 37° C. in a blocking solution consisting of 2% bovine serum albumin (BSA), 10% normal goat serum and 0.05% Tween-20 in PBS. HER2 and Raf-1 were immunodetected with antibodies from Santa Cruz (SC284 and SC133, respectively); IGF-IR, an antibody from Calbiochem Oncogene Science (Abl). Slides were incubated with a […] of the primary antibody in blocking buffer for 1 hr at room temperature, followed by an incubation with Alexa 546-coupled goat anti-rabbit lgG secondary antibody (A-11010, Molecular Probes) at a […] in blocking buffer, or fluoresceine isothiocyanate-coupled goat anti-mouse IgG (F276, Molecular Probes) at a […]. […] DNA was stained with bisbenzimide, which was included in the secondary antibody solution (3 μg/ml final concentration. Coverslips were mounted on glass slides using Vectashield (Vector), to prevent quenching of fluorescence. Immunofluorescence was detected with a Zeiss epifluorescence microscope, at 40× and 100×, using appropriate filters for detection of rhodamine and bisbenzimide, and via confocal microscopy.

IGF-IR = test: Immunofluorescence of IGF-IR in MCF-7 cells; assay type: cell-based, human; details: vs DMSO control
Procedure: as §4

IGF-I receptor = IGF-I receptor level in MCF-7 cells (immunoprecipitation/immunoblotting time course); assay type: cell-based, human; details: 1 μM, 3 to 24 hours
Procedure: as §2, with “For immunoblotting (HER2, Raf-1, ER), cells were lysed with SDS lysis buffer (50 mM Tris-HCl, pH 7.5, 2% SDS, 10% glycerol, and 1 mM DTT), boiled for 10 min, and sonicated briefly; for immanoprecipitation (IGF-IR), cells were lysed with NP40 lysis buffer (50 mM Tris-HCl, pH 7.5, 1% Nonidet P-40, 150 mM NaCl, 1 mM Na3VO4, 40 mM NaF, 1 mM phenylmethylsulfonyl fluoride (PMSF) and 10 μg/ml each of aprotinin, leupeptin and soybean trypsin inhibitor) for 20 min at 4° C.” left out

HER-2 and Raf-1 = test: Varying concentration and treatment pattern, HER-2 and Raf-1 levels (Example 3); assay type: cell-based
estrogen receptor = test: Estrogen receptor level in MCF-7 cells (immunoblotting time course); assay type: cell-based, human; details: 1 μM, 3 to 24 hours
HER2 [4] = test: Immunofluorescence of HER2 in MCF-7 cells; assay type: cell-based, human; details: vs DMSO control
Procedure: as §4

| Compound | IC50 (MCF-7 cells) | IC50 (HER2 [1]) | IC50 (Raf-1 [2]) | activity against HER2 (in words) (HER2 [1]) | specificity/selectivity for HER-2 over Raf-1 (HER2 [1]) | activity against Raf-1 (in words) (Raf-1 [2]) | other results |
| --- | --- | --- | --- | --- | --- | --- | --- |
| COC1C=CC=C(C)C(=O)NC2=CC(=O)C(NCCCCCCCCCNC3=C4CC(C)CC(OC)C(O)C(C)C=C(C)C(OC(N)=O)C(OC)C=CC=C(C)C(=O)NC(=CC3=O)C4=O)=C(CC(C)CC(OC)C(O)C(C)C=C(C)C1OC(N)=O)C2=O (stereo not drawn) | 0.7 µM | 0.5 µM | 3.8 µM |  |  |  |  |
| COC1C=CC=C(C)C(=O)NC2=CC(=O)C(NCCCCN)=C(CC(C)CC(OC)C(O)C(C)C=C(C)C1OC(N)=O)C2=O (stereo not drawn) [ButylaminoGM] |  | 0.055 µM |  | modestly weaker than GM | not selective | modestly weaker than GM |  |
| COC1C=CC=C(C)C(=O)NC2=CC(=O)C(NCCCCNC3=C4CC(C)CC(OC)C(O)C(C)C=C(C)C(OC(N)=O)C(OC)C=CC=C(C)C(=O)NC(=CC3=O)C4=O)=C(CC(C)CC(OC)C(O)C(C)C=C(C)C1OC(N)=O)C2=O (stereo not drawn) [GMD-4c] | 0.1 µM | 0.06 µM | 3.2 µM |  | greatest selectivity of the compounds tested |  | effect on growth of 32D cells (32D cells): does not appreciably affect its growth; also recorded: much less so; sensitivity of SKBR3 cells (SKBR3): very sensitive; anti-Raf-1 staining (immunofluorescence) (Raf-1 [3]): only observed for the anti-HER2 antibodies; anti-IGF-IR staining (immunofluorescence) (IGF-IR): only observed for the anti-HER2 antibodies; IGF-I receptor expression over time (IGF-I receptor): does not affect; amount of HER-2 and Raf-1 as a function of the treatment pattern (HER-2 and Raf-1; 0.25, 0.5 and 1 μM, single or repeated treatments at 0, 3, 6, 12 hours): No significant differences; selectivity on repeated addition (HER-2 and Raf-1; high concentrations added four times in twelve hours): retained selectivity; Estrogen receptor levels over time (estrogen receptor): declined transiently but returned to baseline by 24 hours; HER2 / HER-kinase expression over time (HER2 [1]; 1 μM, 3 to 24 hours, Western blot and immunohistochemical analysis): reduces HER2 expression with the same kinetics; Raf-1 expression over time (Raf-1 [2]; 1 μM, 3 to 24 hours): does not affect; anti-HER2 staining (immunofluorescence) (HER2 [4]): significant reduction in fluorescence levels |
| COC1C=CC=C(C)C(=O)NC2=CC(=O)C(NCCCCCCCNC3=C4CC(C)CC(OC)C(O)C(C)C=C(C)C(OC(N)=O)C(OC)C=CC=C(C)C(=O)NC(=CC3=O)C4=O)=C(CC(C)CC(OC)C(O)C(C)C=C(C)C1OC(N)=O)C2=O (stereo not drawn) [GMD-7c] | 0.6 µM | 0.07 µM | 0.5 µM |  |  |  |  |
| CC(C)C(C)C [GMD-aa] | > 2 µM | > 5 µM | > 5 µM | inactive |  | inactive |  |
| COC1C=CC=C(C)C(=O)NC2=CC(=O)C(NCCCCCCCCCCCCNC3=C4CC(C)CC(OC)C(O)C(C)C=C(C)C(OC(N)=O)C(OC)C=CC=C(C)C(=O)NC(=CC3=O)C4=O)=C(CC(C)CC(OC)C(O)C(C)C=C(C)C1OC(N)=O)C2=O (stereo not drawn) [twelve carbon-linked compound] | 0.7 µM | 0.75 µM | 3.5 µM |  |  |  |  |
